Reference: US20210147807A1, “METHODS FOR PURIFYING ENDODERM AND PANCREATIC ENDODERM CELLS DERIVED FROM HUMAN EMBRYONIC STEM CELLS” (HELMHOLTZ ZENTRUM MUNCHEN - DEUTSCHES FORSCHUNGSZENTRUM FUR …, priority 2017, published 2021)

How the values were obtained:
[1] = tested on: CD177+ and CD275+ ADE subpopulations in the bulk CXCR4+ DE population; test: Modulation of ADE differentiation efficiency by BMP/TGF-β inhibitors during endoderm induction, FACS percentage of CD177+ and CD275+ ADE; format: cell-based, human; details: for percentage of CD275+ DE differentiation: combination of 2.5 μM DMH1 and 1 μM SB431542, endoderm differentiation until D4
Procedure: I-K) Pie charts representing the percentage of CD177+ and CD275+ ADE subpopulations generated using no inhibition of pathways (I, condition 1), with high inhibition of BMP signalling using BMP inhibitor DMH1 (J, condition 2) and with moderate BMP inhibition and low TGF-β inhibition (K, condition 3).
(§1) H9, Mel1-NKX6.1-GFPand iPSCs were cultured on 1:30 diluted Geltrex (Invitogen, U.K, Cat #A1413302) in StemMACS iPS-Brew medium (Miltenyi Biotech, Germany, Cat #130-104-368). At ^˜70-80% confluency, cultures were rinsed with 1×DPBS without Mg2+ and Ca2+ (Invitrogen, Cat #14190) followed by incubation with 0.5 mM EDTA (Applichem, Cat #12604-021) for 2-3 min at 37° C. Single cells were rinsed with iPS-Brew, and spun at 1,300 r.p.m. for 3 mins. The resulting cell pellet was suspended in iPS-Brew medium supplemented with Y-27632 (10 μM; Sigma-Aldrich; MO, Cat #Y0503) and the single cell suspension was seeded at ^˜1.5-2×10 s cells/cm2 on Geltrex-coated surfaces. Cultures were fed every day with iPS-Brew medium and differentiation was initiated 24 h following seeding, resulting in ^˜90% starting confluency. The cells were differentiated towards definitive endoderm using MCDB131 medium supplemented with 0.5% BSA (Sigma, Cat #10775835001), 100 ng/ml Activin A (Peprotech, Cat #120-14-300) and 25 ng/ml WNT3A (Peprotech, Cat #315-20) for the first day. For the next 2 days, the cells were treated with MCDB131 supplemented with 0.5% BSA and 100 ng/ml Activin A. For differentiation towards β cells, Rezania, et. al; 2014 β-cell differentiation protocol was used 14. In nutshell, the cells were differentiated towards primitive gut tube with MCDB131 supplemented with 0.5% BSA, 50 ng/ml of FGF7 (Peprotech, Cat #100-19-100) and 0.25 mM Vit.C (Sigma, Cat #120-14-300) for 2 days. For differentiation towards posterior foregut, the cells were further exposed to MCDB131 medium supplemented with 1xGlutamax (Gibco, Cat #A12860-01), 2% BSA (Cat #10775835001), 0.25 mM Vit. C (Sigma, Cat #A4544-25G), 50 ng/ml FGF7, 0.25 μM SANT-1 (Sigma, Cat #54572-5MG), 1 μM retinoic acid (Sigma, Cat #R2625-50MG), 100 nM LDN193189 (Sigma, Cat #04-0074), 1:200 ITS-X (Gibco, Cat #51500-056) and 200 nM TPB (Merk Millipore, Cat #565740-1MG) for 2 days. For the WNT inhibition experiment only, 1.25 μM of IWP2 (Tocris, Cat #3533-10) was added to the cultures. The cells were then further differentiated towards pancreatic endoderm using MCDB131 supplemented with 1xGlutamax, 10 mM final glucose concentration, 2% BSA, 0.25 mM Vit.C, 2 ng/ml FGF7, 0.25 μM SANT-1, 0.1 μM retinoic acid, 200 nM LDN193189, 1:200 ITS-X and 100 nM TPB for 3 days. […]

[2] = tested on: PDX1+/NKX6.1+ PP2 cells derived from CD177+, CD275+ and CXCR4+ subpopulations; test: Inhibition of WNT secretion during gut tube patterning, FACS for PDX1+/NKX6.1+ PP2 cells from sorted ADE subpopulations; format: cell-based, human; details: after addition of IWP2 (1.25 μM) at S2, 2D culture
Procedure: A) Overview of differentiation protocol towards pancreatic progenitors where inhibition of WNT secretion is performed at […] stage using IWP2 B-D) FACS quantification (B) and immunocytochemistry (C-D) for the percentage of cells expressing
PDX1+/NKX6.1+ generated from CD177+-, CD275+- and CXCR4+-ADE before (B, C), Scale bars, 50 μm and after (B, D) the treatment with IWP2. Scale bars, 20 μm.
as §1, with “Vit.” for “Vit. C (Sigma, Cat #A4544-25G), 50 ng/ml FGF7, 0.25 μM SANT-1 (Sigma, Cat #54572-5MG), 1 μM retinoic acid (Sigma, Cat #R2625-50MG), 100 nM LDN193189 (Sigma, Cat #04-0074), 1:200 ITS-X (Gibco, Cat #51500-056) and 200 nM TPB (Merk Millipore, Cat #565740-1MG) for 2 days. For the WNT inhibition experiment only, 1.25 μM of IWP2 (Tocris, Cat #3533-10) was added to the cultures. The cells were then further differentiated towards pancreatic endoderm using MCDB131 supplemented with 1xGlutamax, 10 mM final glucose concentration, 2% BSA, 0.25 mM Vit.C, 2 ng/ml FGF7, 0.25 μM SANT-1, 0.1 μM retinoic acid, 200 nM LDN193189, 1:200 ITS-X and 100 nM TPB for 3 days.”

[3] = standard differentiation without inhibitor 21%

Row | SMILES | percentage of CD275+ ADE in the bulk CXCR4+ DE population ([1]; 4 μM DMH1 with 100 ng/ml AA, endoderm differentiation until D4, standard differentiation without inhibitor 21%) | percentage of CD177+ ADE in the bulk CXCR4+ DE population ([1]; 4 μM DMH1 with 100 ng/ml AA, endoderm differentiation until D4, standard differentiation without inhibitor 35.5%) | percentage of CD275+ DE differentiation [1, 3] | percentage of PDX1+/NKX6.1+ PP2 cells derived from CD275+ ADE ([2]; without IWP2 approx. 30%) | percentage of PDX1+/NKX6.1+ PP2 cells derived from CXCR4+ DE ([2]; without IWP2 approx. 45%) | change in percentage of PDX1+/NKX6.1+ double positive PP2 cells in CD177+-derived PP2s ([2]; without IWP2 approx. 75%)
1 | CC(C)Oc1ccc(-c2cnc3c(-c4ccnc5ccccc45)cnn3c2)cc1 [DMH1] | 14% | 80.5% | 54.0% | – | – | –
2 | Cc1ccc2nc(NC(=O)CSc3nc4c(c(=O)n3-c3ccccc3)SCC4)sc2c1 [IWP2] | – | – | – | 50% | 75% | No differences were observed
3 | NC(=O)c1ccc(-c2nc(-c3ccc4c(c3)OCO4)c(-c3ccccn3)[nH]2)cc1 [SB431542] | – | – | 54.0% | – | – | –
